Laboratory results taken from the NIST ThermoML archive (doi:10.1016/j.jct.2016.01.002).

Assay: xn = mol fraction of the nth substance listed
Details: 100 kPa, Liquid; for electrical conductivity: Direct current cell with electrodes; for mass density: Vibrating tube method; for viscosity: Concentric cylinders viscometry

[Cl][Fe]([Cl])[Cl] [ferric chloride] + CCCCn1cc[n+](C)c1.[Cl-]
Details | electrical conductivity [S/m] | mass density [kg/m3] | viscosity [mPa·s]
293.15 K, x1 = 0.3704 | 0.1033 | 1279.5 | –
293.15 K, x1 = 0.4 | 0.172 | 1299.3 | –
293.15 K, x1 = 0.4348 | 0.306 | 1322.8 | –
293.15 K, x1 = 0.4545 | 0.406 | 1337.1 | –
293.15 K, x1 = 0.4762 | 0.541 | 1352.4 | –
293.15 K, x1 = 0.5 | 0.722 | 1369.9 | –
293.15 K, x1 = 0.5238 | 0.675 | 1391.6 | –
293.15 K, x1 = 0.5652 | 0.626 | 1433.4 | –
293.15 K, x1 = 0.6 | 0.604 | 1468.1 | –
298.15 K, x1 = 0.3704 | 0.1436 | 1275.8 | 195.6
298.15 K, x1 = 0.4 | 0.228 | 1295.2 | 123
298.15 K, x1 = 0.4348 | 0.387 | 1318.7 | 70.2
298.15 K, x1 = 0.4545 | 0.502 | 1332.9 | 51.1
298.15 K, x1 = 0.4762 | 0.658 | 1348.3 | 38.7
298.15 K, x1 = 0.5 | 0.864 | 1365.7 | 31.2
298.15 K, x1 = 0.5238 | 0.809 | 1387.4 | 30.1
298.15 K, x1 = 0.5652 | 0.747 | 1428.8 | 28.4
298.15 K, x1 = 0.6 | 0.719 | 1463.5 | 27.4
303.15 K, x1 = 0.3704 | 0.192 | 1271.9 | –
303.15 K, x1 = 0.4 | 0.295 | 1291.2 | –
303.15 K, x1 = 0.4348 | 0.478 | 1314.4 | –
303.15 K, x1 = 0.4545 | 0.61 | 1328.8 | –
303.15 K, x1 = 0.4762 | 0.786 | 1343.8 | –
303.15 K, x1 = 0.5 | 1.011 | 1361.4 | –
303.15 K, x1 = 0.5238 | 0.952 | 1383.4 | –
303.15 K, x1 = 0.5652 | 0.878 | 1424.3 | –
303.15 K, x1 = 0.6 | 0.84 | 1458.4 | –
308.15 K, x1 = 0.3704 | 0.25 | 1268.1 | –
308.15 K, x1 = 0.4 | 0.371 | 1287.4 | –
308.15 K, x1 = 0.4348 | 0.582 | 1310.2 | –
308.15 K, x1 = 0.4545 | 0.728 | 1324.8 | –
308.15 K, x1 = 0.4762 | 0.926 | 1339.7 | –
308.15 K, x1 = 0.5 | 1.18 | 1357.3 | –
308.15 K, x1 = 0.5238 | 1.105 | 1378.9 | –
308.15 K, x1 = 0.5652 | 1.017 | 1420 | –
308.15 K, x1 = 0.6 | 0.973 | 1454.3 | –
313.15 K, x1 = 0.3704 | 0.316 | 1264.2 | –
313.15 K, x1 = 0.4 | 0.457 | 1283.3 | –
313.15 K, x1 = 0.4348 | 0.696 | 1306.5 | –
313.15 K, x1 = 0.4545 | 0.858 | 1320.6 | –
313.15 K, x1 = 0.4762 | 1.07 | 1335.6 | –
313.15 K, x1 = 0.5 | 1.35 | 1353.1 | –
313.15 K, x1 = 0.5238 | 1.26 | 1374.5 | –
313.15 K, x1 = 0.5652 | 1.16 | 1415.6 | –
313.15 K, x1 = 0.6 | 1.114 | 1449.7 | –
318.15 K, x1 = 0.3704 | 0.394 | 1260.6 | –
318.15 K, x1 = 0.4 | 0.556 | 1279.6 | –
318.15 K, x1 = 0.4348 | 0.823 | 1302.4 | –
318.15 K, x1 = 0.4545 | 0.998 | 1316.7 | –
318.15 K, x1 = 0.4762 | 1.233 | 1331.6 | –
318.15 K, x1 = 0.5 | 1.535 | 1349 | –
318.15 K, x1 = 0.5238 | 1.44 | 1370.4 | –
318.15 K, x1 = 0.5652 | 1.325 | 1411.2 | –
318.15 K, x1 = 0.6 | 1.26 | 1445.3 | –
323.15 K, x1 = 0.3704 | 0.483 | 1256.7 | –
323.15 K, x1 = 0.4 | 0.666 | 1275.7 | –
323.15 K, x1 = 0.4348 | 0.961 | 1298.5 | –
323.15 K, x1 = 0.4545 | 1.15 | 1312.6 | –
323.15 K, x1 = 0.4762 | 1.4 | 1327.5 | –
323.15 K, x1 = 0.5 | 1.726 | 1344.7 | –
323.15 K, x1 = 0.5238 | 1.623 | 1366.2 | –
323.15 K, x1 = 0.5652 | 1.5 | 1406.7 | –
323.15 K, x1 = 0.6 | 1.423 | 1440.7 | –
328.15 K, x1 = 0.3704 | 0.581 | 1253 | –
328.15 K, x1 = 0.4 | 0.783 | 1271.8 | –
328.15 K, x1 = 0.4348 | 1.108 | 1294.6 | –
328.15 K, x1 = 0.4545 | 1.311 | 1308.7 | –
328.15 K, x1 = 0.4762 | 1.58 | 1323.3 | –
328.15 K, x1 = 0.5 | 1.929 | 1340.7 | –
328.15 K, x1 = 0.5238 | 1.812 | 1361.9 | –
328.15 K, x1 = 0.5652 | 1.67 | 1402.4 | –
328.15 K, x1 = 0.6 | 1.59 | 1436.3 | –
333.15 K, x1 = 0.3704 | 0.691 | 1249.2 | –
333.15 K, x1 = 0.4 | 0.913 | 1267.8 | –
333.15 K, x1 = 0.4348 | 1.27 | 1290.7 | –
333.15 K, x1 = 0.4545 | 1.48 | 1304.6 | –
333.15 K, x1 = 0.4762 | 1.76 | 1319.5 | –
333.15 K, x1 = 0.5 | 2.14 | 1336.5 | –
333.15 K, x1 = 0.5238 | 2.014 | 1357.7 | –
333.15 K, x1 = 0.5652 | 1.85 | 1398 | –
333.15 K, x1 = 0.6 | 1.76 | 1431.8 | –
338.15 K, x1 = 0.3704 | 0.814 | 1245.5 | –
338.15 K, x1 = 0.4 | 1.05 | 1263.9 | –
338.15 K, x1 = 0.4348 | 1.436 | 1286.8 | –
338.15 K, x1 = 0.4545 | 1.66 | 1300.6 | –
338.15 K, x1 = 0.4762 | 1.96 | 1315.5 | –
338.15 K, x1 = 0.5 | 2.35 | 1332.3 | –
338.15 K, x1 = 0.5238 | 2.219 | 1353.2 | –
338.15 K, x1 = 0.5652 | 2.042 | 1393.7 | –
338.15 K, x1 = 0.6 | 1.936 | 1427.3 | –
343.15 K, x1 = 0.3704 | 0.949 | 1241 | –
343.15 K, x1 = 0.4 | 1.208 | 1260.3 | –
343.15 K, x1 = 0.4348 | 1.614 | 1282.6 | –
343.15 K, x1 = 0.4545 | 1.85 | 1296.7 | –
343.15 K, x1 = 0.4762 | 2.16 | 1311.3 | –
343.15 K, x1 = 0.5 | 2.58 | 1328.3 | –
343.15 K, x1 = 0.5238 | 2.435 | 1349.2 | –
343.15 K, x1 = 0.5652 | 2.24 | 1389.3 | –
343.15 K, x1 = 0.6 | 2.12 | 1422.9 | –
